Source: patent US11702404B2, “GLP-1R modulating compounds” (priority 2019, dated 2023)
Like-named read-outs stand apart in the source and are kept apart here.

Key:
[1] = Microsomal stability, human liver microsomes (predicted hepatic clearance); conditions: predicted from in vitro microsomal stability data
[2] = biological target: GLP-1R (Homo sapiens, UniProt P43220); experiment: GLP-1R activation: cAMP increase in CHO cells stably expressing GLP-1R; type: cell-based; conditions: read-out: EC50
[3] = cAMP increase, CHO cells stably expressing GLP-1R, 10 point dose response, 30 minutes incubation

Sequence of GLP-1R (P43220 24-463): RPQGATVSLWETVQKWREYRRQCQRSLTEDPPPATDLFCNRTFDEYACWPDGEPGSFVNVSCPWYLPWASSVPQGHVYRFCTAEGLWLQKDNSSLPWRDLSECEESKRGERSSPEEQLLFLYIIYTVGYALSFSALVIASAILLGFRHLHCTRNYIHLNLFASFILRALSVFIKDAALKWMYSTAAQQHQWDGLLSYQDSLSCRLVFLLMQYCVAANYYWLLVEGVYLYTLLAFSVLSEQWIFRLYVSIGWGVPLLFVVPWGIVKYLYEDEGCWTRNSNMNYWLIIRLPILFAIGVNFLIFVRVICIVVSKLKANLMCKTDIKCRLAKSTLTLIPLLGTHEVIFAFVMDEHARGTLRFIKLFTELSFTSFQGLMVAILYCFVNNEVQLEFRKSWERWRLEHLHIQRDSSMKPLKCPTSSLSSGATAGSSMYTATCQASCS

## N#Cc1cc(F)c(COc2nccc(-c3cc(F)c(Cc4nc5ccc(C(=O)O)cc5n4C[C@@H]4CCO4)cc3F)n2)cc1F [Example 786]
[1]
  Predicted Hepatic Clearance (Pred. Cl.): 1.83 mL/min/kg
[2]; [3]
  EC50: 0.22 nM

## COCCn1c(Cc2ccc(-c3cccc(OCc4ccc(C#N)cc4F)n3)c(C)c2)nc2ccc(C(=O)NS(=O)(=O)C3CC3)cc21 [Example 53, 2-(4-(6-((4-cyano-2-fluorobenzyl)oxy)pyridin-2-yl)-3-methylbenzyl)-N-(cyclopropylsulfonyl)-1-(2-methoxyethyl)-1H-benzo[d]imidazole-6-carboxamide]
[1]
  Predicted Hepatic Clearance (Pred. Cl.): 9 mL/min/kg
[2]; [3]
  EC50: 1010 nM

## CC(C)(C#N)Cn1c(Cc2ccc(-c3cccc(OCc4ccc(C#N)cc4F)n3)cc2F)nc2ccc(C(=O)O)cc21 [Example 14, 2-(4-(6-((4-cyano-2-fluorobenzyl)oxy)pyridin-2-yl)-2-fluorobenzyl)-1-(2-cyano-2-methylpropyl)-1H-benzo[d]imidazole-6-carboxylic acid]
[1]
  Predicted Hepatic Clearance (Pred. Cl.): 5 mL/min/kg
[2]; [3]
  EC50: 3.14 nM

## N#Cc1ccc(COc2cccc(-c3ccc(Cc4nc5ccc(C(=O)O)cc5n4CC4(CF)CC4)cc3F)n2)c(F)c1 [Example 521, 2-(4-(6-((4-cyano-2-fluorobenzyl)oxy)pyridin-2-yl)-3-fluorobenzyl)-1-((1-(fluoromethyl)cyclopropyl)methyl)-1H-benzo[d]imidazole-6-carboxylic acid]
[1]
  Predicted Hepatic Clearance (Pred. Cl.): 6.75 mL/min/kg
[2]; [3]
  EC50: 0.54 nM

## COCCn1c(Cc2cc(F)c(-c3ccnc(OCc4ccc(C(F)F)cc4F)n3)cc2F)nc2c(F)cc(C(=O)O)cc21 [Example 672]
[1]
  Predicted Hepatic Clearance (Pred. Cl.): 1.83 mL/min/kg
[2]; [3]
  EC50: 0.58 nM

## COCCn1c(Cc2ccc(-c3nc(OCc4ccc(C#N)cc4F)ns3)cc2F)nc2ccc(C(=O)O)cc21 [Example 62, 2-(4-(3-((4-cyano-2-fluorobenzyl)oxy)-1,2,4-thiadiazol-5-yl)-2-fluorobenzyl)-1-(2-methoxyethyl)-1H-benzo[d]imidazole-6-carboxylic acid]
[1]
  Predicted Hepatic Clearance (Pred. Cl.): 6.7 mL/min/kg
[2]; [3]
  EC50: 1430 nM

## COCCn1c(Cc2ccc(-c3cccc(OCc4ccc(C#N)cc4F)n3)cc2F)nc2c(F)cc(C(=O)O)cc21 [Example 285, 2-(4-(6-((4-cyano-2-fluorobenzyl)oxy)pyridin-2-yl)-2-fluorobenzyl)-4-fluoro-1-(2-methoxyethyl)-1H-benzo[d]imidazole-6-carboxylic acid]
[1]
  Predicted Hepatic Clearance (Pred. Cl.): <1.83 mL/min/kg
[2]; [3]
  EC50: 2.19 nM

## COCCn1c(Cc2cc(F)c(-c3cccc(OCc4ccc(C#N)cc4OC)n3)cc2F)nc2ccc(C(=O)O)cc21 [Example 436, 2-(4-(6-((4-cyano-2-methoxybenzyl)oxy)pyridin-2-yl)-2,5-difluorobenzyl)-1-(2-methoxyethyl)-1H-benzo[d]imidazole-6-carboxylic acid]
[1]
  Predicted Hepatic Clearance (Pred. Cl.): <1.83 mL/min/kg
[2]; [3]
  EC50: 0.44 nM

## COCCn1c(Cc2cc(F)c(-c3cccc(OCc4ccc(C#N)cc4)n3)cc2F)nc2ccc(C(=O)O)cc21 [Example 604, 2-(4-(6-((4-cyanobenzyl)oxy)pyridin-2-yl)-2,5-difluorobenzyl)-1-(2-methoxyethyl)-1H-benzo[d]imidazole-6-carboxylic acid]
[1]
  Predicted Hepatic Clearance (Pred. Cl.): 4.5 mL/min/kg
[2]; [3]
  EC50: 0.92 nM

## COCCn1c(Cc2ccc(-c3nc(OCc4ccc(C#N)cc4F)cs3)cc2F)nc2ccc(C(=O)O)cc21 [Example 84, 2-(4-(4-((4-cyano-2-fluorobenzyl)oxy)thiazol-2-yl)-2-fluorobenzyl)-1-(2-methoxyethyl)-1H-benzo[d]imidazole-6-carboxylic acid]
[1]
  Predicted Hepatic Clearance (Pred. Cl.): 6.33 mL/min/kg
[2]; [3]
  EC50: 54.3 nM

## COCCn1c(Cc2cnc(-c3cccc(OCc4ccc(C#N)cc4F)n3)c(F)c2)nc2ccc(C(=O)O)cc21 [Example 855]
[1]
  Predicted Hepatic Clearance (Pred. Cl.): 5.5 mL/min/kg
[2]; [3]
  EC50: 12.6 nM

## N#Cc1ccc(COc2cccc(-c3ccc(Cc4nc5ccc(C(=O)O)cc5n4Cc4ncco4)c(F)c3)n2)c(F)c1 [Example 371, 2-(4-(6-((4-cyano-2-fluorobenzyl)oxy)pyridin-2-yl)-2-fluorobenzyl)-1-(oxazol-2-ylmethyl)-1H-benzo[d]imidazole-6-carboxylic acid]
[1]
  Predicted Hepatic Clearance (Pred. Cl.): 3 mL/min/kg
[2]; [3]
  EC50: 1.61 nM

## COCCn1c(Cc2ccc(-c3cccc(OCc4ccc(F)cc4OC)n3)cc2F)nc2ccc(C(=O)O)cc21 [Example 252, 2-(2-fluoro-4-(6-((4-fluoro-2-methoxybenzyl)oxy)pyridin-2-yl)benzyl)-1-(2-methoxyethyl)-1H-benzo[d]imidazole-6-carboxylic acid]
[1]
  Predicted Hepatic Clearance (Pred. Cl.): <1.83 mL/min/kg
[2]; [3]
  EC50: 3.78 nM

## N#Cc1ccc(COc2ccnc(-c3cc(F)c(Cc4nc5ccc(C(=O)O)cc5n4C[C@@H]4CCO4)cc3F)n2)c(F)c1 [Example 451, (S)-2-(4-(4-((4-cyano-2-fluorobenzyl)oxy)pyrimidin-2-yl)-2,5-difluorobenzyl)-1-(oxetan-2-ylmethyl)-1H-benzo[d]imidazole-6-carboxylic acid]
[1]
  Predicted Hepatic Clearance (Pred. Cl.): 4.83 mL/min/kg
[2]; [3]
  EC50: 0.16 nM

## N#Cc1ccc(COc2cccc(-c3cc(F)c(Cc4nc5ccc(C(=O)O)cc5n4Cc4cncs4)cc3F)n2)c(F)c1 [Example 706]
[1]
  Predicted Hepatic Clearance (Pred. Cl.): 12.2 mL/min/kg
[2]; [3]
  EC50: 1.31 nM

## COCCn1c(Cc2ccc(-c3cccc(OCc4cccc5c4nnn5C)n3)cc2F)nc2ccc(C(=O)O)cc21 [Example 147, 2-(2-fluoro-4-(6-((1-methyl-1H-benzo[d][1,2,3]triazol-4-yl)methoxy)pyridin-2-yl)benzyl)-1-(2-methoxyethyl)-1H-benzo[d]imidazole-6-carboxylic acid]
[1]
  Predicted Hepatic Clearance (Pred. Cl.): 12 mL/min/kg
[2]; [3]
  EC50: 760 nM

## COCCn1c(Cc2cc(F)c(-c3cccc(OCc4ccc(C(C)=O)cc4)n3)cc2F)nc2ccc(C(=O)O)cc21 [Example 875]
[1]
  Predicted Hepatic Clearance (Pred. Cl.): 9.33 mL/min/kg
[2]; [3]
  EC50: 2.32 nM

## COCCn1c(Cc2ccc(-c3cccc(OCc4ccc(C#N)cc4F)n3)cc2F)nc2ncc(C(=O)O)cc21 [Example 71, 2-(4-(6-((4-cyano-2-fluorobenzyl)oxy)pyridin-2-yl)-2-fluorobenzyl)-1-(2-methoxyethyl)-1H-imidazo[4,5-b]pyridine-6-carboxylic]
[1]
  Predicted Hepatic Clearance (Pred. Cl.): <1.83 mL/min/kg
[2]; [3]
  EC50: 1.34 nM

## COCCn1c(Cc2ccc(-c3cccc(O[C@@H](C)c4ccccc4)n3)cc2F)nc2ccc(C(=O)O)cc21 [Example 494, (S)-2-(2-fluoro-4-(6-(1-phenylethoxy)pyridin-2-yl)benzyl)-1-(2-methoxyethyl)-1H-benzo[d]imidazole-6-carboxylic acid]
[1]
  Predicted Hepatic Clearance (Pred. Cl.): 13.2 mL/min/kg
[2]; [3]
  EC50: 4550 nM

## N#Cc1ccc(COc2nccc(-c3cc(F)c(Cc4nc5ccc(C(=O)O)cc5n4CC4(CF)CC4)cc3F)n2)c(F)c1 [Example 431, 2-(4-(2-((4-cyano-2-fluorobenzyl)oxy)pyrimidin-4-yl)-2,5-difluorobenzyl)-1-((1-(fluoromethyl)cyclopropyl)methyl)-1H-benzo[d]imidazole-6-carboxylic acid]
[1]
  Predicted Hepatic Clearance (Pred. Cl.): 3.83 mL/min/kg
[2]; [3]
  EC50: 0.73 nM

## N#Cc1ccc(COc2cccc(-c3ccc(Cc4nc5ccc(C(=O)O)cc5n4CC4(n5ccnn5)CC4)c(F)c3)n2)c(F)c1 [Example 284, 1-((1-(1H-1,2,3-triazol-1-yl)cyclopropyl)methyl)-2-(4-(6-((4-cyano-2-fluorobenzyl)oxy)pyridin-2-yl)-2-fluorobenzyl)-1H-benzo[d]imidazole-6-carboxylic acid]
[1]
  Predicted Hepatic Clearance (Pred. Cl.): <1.83 mL/min/kg
[2]; [3]
  EC50: 2.87 nM

## N#CCC1(Cn2c(Cc3cc(F)c(-c4ccnc(OCc5ccc(C(F)F)cc5F)n4)cc3F)nc3ccc(C(=O)O)cc32)CC1 [Example 751]
[1]
  Predicted Hepatic Clearance (Pred. Cl.): 7.17 mL/min/kg
[2]; [3]
  EC50: 0.19 nM

## COCCn1c(Cc2ccc(-c3cccc(OCc4ccc(C#N)cc4F)n3)cc2-c2ccccc2)nc2ccc(C(=O)O)cc21 [Example 184, 2-((5-(6-((4-cyano-2-fluorobenzyl)oxy)pyridin-2-yl)-[1,1′-biphenyl]-2-yl)methyl)-1-(2-methoxyethyl)-1H-benzo[d]imidazole-6-carboxylic acid]
[1]
  Predicted Hepatic Clearance (Pred. Cl.): <1.83 mL/min/kg
[2]; [3]
  EC50: 369 nM

## COCCn1c(Cc2cc(F)c(-c3cccc(OCc4ccc(Cl)cc4F)n3)cc2F)nc2c(F)cc(C(=O)O)cc21 [Example 662]
[1]
  Predicted Hepatic Clearance (Pred. Cl.): 3.67 mL/min/kg
[2]; [3]
  EC50: 0.39 nM

## N#Cc1ccc(COc2cccc(-c3cc(F)c(Cc4nc5ccc(C(=O)O)cc5n4[C@H]4CCC(F)(F)C4)cc3F)n2)c(F)c1 [Example 698]
[1]
  Predicted Hepatic Clearance (Pred. Cl.): 6.33 mL/min/kg
[2]; [3]
  EC50: 63.2 nM

## CO[C@H]1CC[C@@H]1n1c(Cc2cc(F)c(-c3cccc(OCc4ccc(C#N)cc4F)n3)cc2F)nc2ccc(C(=O)O)cc21 [Example 701]
[1]
  Predicted Hepatic Clearance (Pred. Cl.): 3.83 mL/min/kg
[2]; [3]
  EC50: 145 nM

## N#CCC1(Cn2c(Cc3ccc(-c4cccc(OCc5ccc(C#N)cc5F)n4)cc3F)nc3c(F)cc(C(=O)O)cc32)CC1 [Example 296, 2-(4-(6-((4-cyano-2-fluorobenzyl)oxy)pyridin-2-yl)-2-fluorobenzyl)-1-((1-(cyanomethyl)cyclopropyl)methyl)-4-fluoro-1H-benzo[d]imidazole-6-carboxylic acid]
[1]
  Predicted Hepatic Clearance (Pred. Cl.): 5.33 mL/min/kg
[2]; [3]
  EC50: 0.08 nM

## COCCn1c(Cc2ccc(-c3cccc(OCc4ccc(C#N)nc4)n3)cc2F)nc2ccc(C(=O)O)cc21 [Example 216, 2-(4-(6-((6-cyanopyridin-3-yl)methoxy)pyridin-2-yl)-2-fluorobenzyl)-1-(2-methoxyethyl)-1H-benzo[d]imidazole-6-carboxylic acid]
[1]
  Predicted Hepatic Clearance (Pred. Cl.): <1.83 mL/min/kg
[2]; [3]
  EC50: 110 nM

## N#Cc1ccc(COc2cccc(-c3cc(F)c(Cc4nc5ccc(C(=O)O)cc5n4CCNc4ccccn4)cc3F)n2)c(F)c1 [Example 835]
[1]
  Predicted Hepatic Clearance (Pred. Cl.): 11.2 mL/min/kg
[2]
  EC50: 515 nM
